The subject of series [1] is Male beagle dogs. To be noted: dog, in vivo.
For series [2] the following is noted: dog; intrathecal; cited from earlier work.
For series [3] the following is noted: dog, in vivo.

As for `CSCC[C@@H]1NC(=O)[C@H](CC(C)C)NC(=O)[C@H](CCCNC(=N)N)NC(=O)[C@H](CO)NC(=O)[C@@H]2CSSC[C@@H]3NC(=O)[C@H](CO)NC(=O)CNC(=O)[C@H]([C@@H](C)O)NC(=O)[C@H](CSSC[C@H](N)C(=O)N[C@@H](CCCCN)C(=O)NCC(=O)N[C@@H](CCCCN)C(=O)NCC(=O)N[C@@H](C)C(=O)N[C@@H](CCCCN)C(=O)N2)NC(=O)[C@H](CSSC[C@@H](C(N)=O)NC(=O)[C@H](CCCCN)NC(=O)CNC(=O)[C@H](CO)NC(=O)[C@H](CCCNC(=N)N)NC3=O)NC(=O)[C@H](CC(=O)O)NC(=O)[C@H](Cc2ccc(O)cc2)NC1=O` [Ziconotide], in series [1], the “Decreased arousal and activity (remained responsive), dogs affected” value is on record as “All 5 dogs”.

For `O=C(c1ccccc1)c1ccc2n1CCC2C(=O)O` (stereo not drawn) [ketorolac], the “T1/2 (CSF elimination) in this model” value in series [2] is 54 min.

Take inulin [[^3H]Inulin]: the “T1/2 α in LCSF” value in series [3] came out at 9.6 min.
